Source: patent US20240122816A1, “ARTICLES FOR INDIRECT TRANSFER OF COSMETIC ACTIVES TO SKIN” (SYMRISE AG, priority 2019, published 2024)

Assay: Analysis of the bisabolol content on the skin (GC/MS of alcohol-pad extract) after transfer from laundered clothing article
Type: in vivo, human
From the text: Protocol: • One cotton sock from the laundry described previously was inverted to expose the inner surface. • Left arm of a subject was washed with unfragranced soap followed by 95% alcohol wipe to remove any foreign material and soluble oils. • Rubbed previously laundered cotton sock with Symrelief onto subject's […]. Seven times on one side then 8 times on the other sock surface.
(§1) Protocol: • Applied 3 commercially available alcohol pads (which had been soaked in 95% ethanol) onto arm area. Allowed to dry completely. • The alcohol wipe pads were transferred into 1 oz glass jar and added 5 grams diethylether and allowed to extract for 2 hours. • Ether extract was concentrated to 100 μl under a nitrogen stream. • 2.5 μl was manually injected into a GC/MS equipt with a carbowax column and run with a splitless method. • Bisabolol peak was identified in the sample by the characteristic ions in the mass spectrum. • The control arm was treated in the same manner with no identified bisabolol.
Protocol: • One of a pair of cotton/poly socks from the laundry described previously was given to a test subject removed and blind codded. The sock was paired with a blind codded sock that was un-laundered. • The ventral surface of the subjects ankles were washed with unfragranced soap followed by 95% alcohol wipe to remove any foreign material and soluble oils. • The pair of socks were worn by a test subject for 8 hours in a normal use setting.
as §1, with “•” for “Protocol: •”, “12” for “3”, “bisabolol. […]” for “bisabolol.”

Measured: Bisabolol peak in skin wipe extract (GC/MS, characteristic ions)

CC(C)=CCC[C@](C)(O)C1CC=C(C)CC1 (stereo partly drawn) [Bisabolol, bisabolol]
identified: laundered cotton sock (softener with 5% Symcap G1 Bisabolol slurry) rubbed onto subject's arm, 7 and 8 times, 3 alcohol pads | laundered cotton/poly sock worn for 8 hours in normal use, 12 alcohol pads | laundered thermal shirt worn for 8 hours in normal use, upper arms, 12 alcohol pads
